Assay results taken from the NIST ThermoML archive (doi:10.1016/j.jct.2011.09.011).

Test: excess molar enthalpy (molar enthalpy of mixing); xn = mol fraction of the nth substance listed
Settings: 101 kPa, Liquid, Parr 1455 solution calorimeter

CCCCCCCCCCO [decan-1-ol] + CC#N
Settings | excess molar enthalpy [kcal/mol]
298.15 K, x1 = 0.0436 | 0.171
298.15 K, x1 = 0.0542 | 0.206
298.15 K, x1 = 0.0678 | 0.248
298.15 K, x1 = 0.079 | 0.279
298.15 K, x1 = 0.0919 | 0.313
298.15 K, x1 = 0.1077 | 0.351
298.15 K, x1 = 0.127 | 0.393
298.15 K, x1 = 0.1509 | 0.44
298.15 K, x1 = 0.181 | 0.491
298.15 K, x1 = 0.2197 | 0.546
298.15 K, x1 = 0.271 | 0.607
298.15 K, x1 = 0.3415 | 0.671
298.15 K, x1 = 0.3857 | 0.699
298.15 K, x1 = 0.4394 | 0.72
298.15 K, x1 = 0.5058 | 0.724
298.15 K, x1 = 0.5895 | 0.694
298.15 K, x1 = 0.6985 | 0.596
298.15 K, x1 = 0.78 | 0.482
298.15 K, x1 = 0.8433 | 0.372
298.15 K, x1 = 0.9159 | 0.222
303.15 K, x1 = 0.0586 | 0.245
303.15 K, x1 = 0.0678 | 0.274
303.15 K, x1 = 0.079 | 0.306
303.15 K, x1 = 0.0919 | 0.342
303.15 K, x1 = 0.1077 | 0.38
303.15 K, x1 = 0.127 | 0.419
303.15 K, x1 = 0.1509 | 0.462
303.15 K, x1 = 0.181 | 0.506
303.15 K, x1 = 0.2197 | 0.559
303.15 K, x1 = 0.271 | 0.622
303.15 K, x1 = 0.3415 | 0.689
303.15 K, x1 = 0.3857 | 0.713
303.15 K, x1 = 0.4394 | 0.732
303.15 K, x1 = 0.5058 | 0.736
303.15 K, x1 = 0.5895 | 0.711
303.15 K, x1 = 0.6985 | 0.628
303.15 K, x1 = 0.78 | 0.512
303.15 K, x1 = 0.8433 | 0.396
303.15 K, x1 = 0.9159 | 0.243
308.15 K, x1 = 0.0748 | 0.279
308.15 K, x1 = 0.1008 | 0.347
308.15 K, x1 = 0.1409 | 0.437
308.15 K, x1 = 0.1866 | 0.524
308.15 K, x1 = 0.2546 | 0.637
308.15 K, x1 = 0.3186 | 0.714
308.15 K, x1 = 0.4096 | 0.794
308.15 K, x1 = 0.4314 | 0.796
308.15 K, x1 = 0.455 | 0.794
308.15 K, x1 = 0.4807 | 0.788
308.15 K, x1 = 0.5088 | 0.78
308.15 K, x1 = 0.5395 | 0.767
308.15 K, x1 = 0.5734 | 0.75
308.15 K, x1 = 0.6109 | 0.724
308.15 K, x1 = 0.6525 | 0.686
308.15 K, x1 = 0.6991 | 0.636
308.15 K, x1 = 0.7515 | 0.567
308.15 K, x1 = 0.8108 | 0.471
308.15 K, x1 = 0.8785 | 0.336
308.15 K, x1 = 0.9566 | 0.142

CCCCCCCCCO [nonan-1-ol] + CC#N
excess molar enthalpy [kcal/mol]
Settings | 298.15 K | 303.15 K | 308.15 K
x1 = 0.0899 | 0.254 | 0.297 | 0.307
x1 = 0.1141 | 0.303 | 0.35 | 0.364
x1 = 0.1501 | 0.365 | 0.42 | 0.441
x1 = 0.1975 | 0.433 | 0.5 | 0.525
x1 = 0.2673 | 0.515 | 0.593 | 0.627
x1 = 0.3318 | 0.573 | 0.65 | 0.689
x1 = 0.4217 | 0.626 | 0.708 | 0.745
x1 = 0.443 | 0.632 | 0.71 | 0.742
x1 = 0.4659 | 0.636 | 0.709 | 0.738
x1 = 0.4906 | 0.639 | 0.706 | 0.73
x1 = 0.5175 | 0.637 | 0.701 | 0.72
x1 = 0.5468 | 0.631 | 0.69 | 0.705
x1 = 0.5787 | 0.619 | 0.672 | 0.685
x1 = 0.6138 | 0.601 | 0.647 | 0.659
x1 = 0.6524 | 0.573 | 0.616 | 0.625
x1 = 0.695 | 0.534 | 0.573 | 0.583
x1 = 0.7425 | 0.482 | 0.515 | 0.529
x1 = 0.7955 | 0.414 | 0.436 | 0.455
x1 = 0.8552 | 0.323 | 0.341 | 0.355
x1 = 0.9228 | 0.197 | 0.21 | 0.216
